Assay results as given in US20070166547A1, “Use of a layer consisting of hydrophobic linear, or two-dimensional polycyclic aromatics as a barrier layer or an encapsulation and electric components constructed with a layer of this type and comprising organic polymers” (priority 2003, published 2007).

Experiments:
[1] = Chronic toxicity, rectal suppositories: indexes of urine; details: rats, 1 month after the administration
Method: (§1) The experiments were conducted on inbred rats. The experimental animals were selected in groups by a method of random sampling taking into account the body mass as a determining index; 24 males or 24 females for one preparation from compounds 2, 15, 23, 34, 37 investigated in one dose.
(§2) Two doses of preparations used in the experiments: 50 mg/kg and 500 mg/kg. Before the administration, the suppositories were softened by heating in a glass water bath at a temperature of 38-39° C., the soft mass was collected in tuberculin syringe in a volume of 1 ml, a needle with oliva was attached to the syringe, and the preparatory mass was introduced into the rectum of the animal for a depth of 1.5-2.0 cm. The animals of the control group were administered with sterile medical liquid paraffin in a volume corresponding to the volume of the investigated suppository. A complete course of administration of drugs to the animals was two months. A complex of laboratory diagnostic investigations was carried out one month after the beginning of the administration of the preparation to the animal—in a middle of the course (8 animals), two months after ending the course (8 animals) and three months after ending the recovery period of one month (8 animals). The mass of the body of the rats in the first month of administration of the preparation was determined weekly, and then once in two weeks. On the basis of the dynamics of an index of the mass of the animal body, the volume of preparation being administered was corrected taking into account the test dose.

[2] = Chronic toxicity, rectal suppositories: biochemical indexes of blood serum; details: male rats, 1 month
Method: as §1, §2

For Nc1ccnc2c(=O)n([C@@H]3O[C@H](CO)[C@@H](O)[C@H]3O)[nH]c(=O)c12 [Compound 2, 4-amino-7-(β-D-ribofuranosile)pyrido[2,3-d]-6H-pyridazine-5,8-dione], the “Bilirubin (index of urine)” value ([1]; dose 50 mg/kg) was under 5 Mkmol/l, the “Glucose (index of urine)” value ([1]; dose 50 mg/kg) was under 5 mmol/L and the “Ketone bodies (index of urine)” value ([1]; dose 50 mg/kg) was under 1 mmol/L. The “Potassium (index of urine)” value ([1]; dose 50 mg/kg) was 5.78 ± 1.7 g/L, the “Protein (index of urine)” value ([1]; dose 50 mg/kg) was 0.69 ± 0.33 g/L and the “Sodium (index of urine)” value ([1]; dose 50 mg/kg) was 1.7 ± 0.3 g/L. The “Urea (index of urine)” value ([1]; dose 50 mg/kg) was 457 ± 144 mmol/L, the “Urobilinogen (index of urine)” value ([1]; dose 50 mg/kg) was under 16 Mkmol/l and the “pH (index of urine)” value ([1]; dose 50 mg/kg) was 6.1 ± 0.3. For the same compound, the “Bilirubin (index of urine)” value ([1]; dose 500 mg/kg) was under 5 Mkmol/l, the “Glucose (index of urine)” value ([1]; dose 500 mg/kg) was under 5 mmol/L and the “Ketone bodies (index of urine)” value ([1]; dose 500 mg/kg) was under 1 mmol/L. For the same compound, the “Potassium (index of urine)” value ([1]; dose 500 mg/kg) was 6.24 ± 1.8 g/L, the “Protein (index of urine)” value ([1]; dose 500 mg/kg) was 0.76 ± 0.31 g/L and the “Sodium (index of urine)” value ([1]; dose 500 mg/kg) was 1.27 ± 0.3 g/L. The “Urea (index of urine)” value ([1]; dose 500 mg/kg) was 492 ± 187 mmol/L, the “Urobilinogen (index of urine)” value ([1]; dose 500 mg/kg) was under 16 Mkmol/l and the “pH (index of urine)” value ([1]; dose 500 mg/kg) was 6.2 ± 0.2. For the same compound, the ALT ([2]; suppositories 50 mg/kg) was 10.84 ± 2.02 unit/l, the AST ([2]; suppositories 50 mg/kg) was 20.41 ± 3.06 unit/1 and the Alkalinous phosphatase ([2]; suppositories 50 mg/kg) was 42.12 ± 4.23 unit/1. It also gave a Bilirubin ([2]; suppositories 50 mg/kg) of 44.38 ± 4.12, a Cholesterol ([2]; suppositories 50 mg/kg) of 2.77 ± 0.71 mmol/L and a Creatinine ([2]; suppositories 50 mg/kg) of 47.38 ± 3.26 mkmol/l. It also gave a Glucose ([2]; suppositories 50 mg/kg) of 9.85 ± 0.37 mM, a Total protein ([2]; suppositories 50 mg/kg) of 87.34 ± 5.56 g/L and a Urea ([2]; suppositories 50 mg/kg) of 11.02 ± 0.73. It also gave an ALT ([2]; suppositories 500 mg/kg) of 11.23 ± 1.70 unit/l, an AST ([2]; suppositories 500 mg/kg) of 20.13 ± 2.95 unit/1 and an Alkalinous phosphatase ([2]; suppositories 500 mg/kg) of 43.4 ± 2.12 unit/1. For the same compound, the Bilirubin ([2]; suppositories 500 mg/kg) was 42.56 ± 7.56, the Cholesterol ([2]; suppositories 500 mg/kg) was 2.96 ± 0.52 mmol/L and the Creatinine ([2]; suppositories 500 mg/kg) was 49.87 ± 8.12 mkmol/l. The Glucose ([2]; suppositories 500 mg/kg) was 10.2 ± 0.74 mM, the Total protein ([2]; suppositories 500 mg/kg) was 70.84 ± 7.47 g/L and the Urea ([2]; suppositories 500 mg/kg) was 11.30 ± 0.80.
